Consider 1 compound from patent EP4608400B1, “COMPOUND FOR TREATMENT OF PAIN” (Initiator Pharma A/S, priority 2022, dated 2024).

Entries after “also recorded” stand apart in the source; their conditions may differ.

In the experiment the test system is Dopamine (DA). The experiment in a line: Microdialysis studies in mice brain (cortex, striatum). It counts as in vivo. Conditions: 10 mg/kg s.c., n=1-2. The method, then: In a small subset of mice, microdialysis was performed with a probe placed in either the striatum or cortex by use of stereotaxis.

Turning to `COc1cc2ccc(O[C@@H]3C[C@H]4CC[C@@H](C3)N4)cc2oc1=O` [IP2015, exo-7-[(8-azabicyclo[3.2.1]octan-3-yl)oxy]-3-methoxy-chromen-2-one], the “Dopamine (DA) elevation in cortex” value is “increased; also recorded: most pronounced”; the “Dopamine (DA) elevation in striatum” value is “less and only some elevation”.
